Data set [1] relates to SARS-CoV-2. Briefly: microbe, parasite or virus in culture. Type of data set: cell-based.
The nature of data set [2]: Cytotoxicity assay, methylene blue staining, Calu-3. The note with it: human.
The nature of data set [3]: in vitro. To be noted: African green monkey.
The nature of data set [4]: in vitro. The note with it: human.
The subject of data set [5] is SARS-CoV-2. The data set is described as follows: SARS-CoV-2 replication inhibition in Vero E6 cells (PFU titration). The note with it: for EC50: read-out: EC50 24 h, Vero E6, MOI 0.01, 24 hpi; for inhibition of SARS-CoV-2 replication: Vero E6, 24 hpi, 10 µM.
Data set [6] has as its system SARS-CoV-2. Set-up: method as in PMID 32759267. To be noted: infected Vero E6 cells; cited from earlier work.
For data set [7], the system named is SARS-CoV-2. Details: method as in PMID 33880524. The note with it: Calu-3-based assays, 48 hpi; cited from earlier work.
Data set [8] has as its system SARS-CoV-2. To be noted: cell model not given; read-out: estimated EC50; cited from earlier work.
Where [9] appears, read: Severe acute respiratory syndrome coronavirus 2, 24 h, Calu-3, MOI 0.01, 24 hpi, read-out: EC50 24 h.
The mark [10] stands for this setting: Severe acute respiratory syndrome coronavirus 2, 48 h, Calu-3, MOI 0.01, 48 hpi, read-out: EC50 48 h.
Where [11] appears, read: Severe acute respiratory syndrome coronavirus 2, Calu-3, 24 h, read-out: EC50 24 h, Calu-3, MOI 0.01, 24 hpi.
The mark [12] stands for this setting: Severe acute respiratory syndrome coronavirus 2, Calu-3, 48 h, read-out: EC50 48 h, Calu-3, MOI 0.01, 48 hpi.
Where [13] appears, read: read-out: EC50 48 h, Calu-3, MOI 0.01, 48 hpi.
[14] abbreviates: Severe acute respiratory syndrome coronavirus 2, Calu-3, read-out: inhibition of coronavirus replication.
Setting [15] is: read-out: EC50 24 h, Calu-3, MOI 0.01, 24 hpi.

Read-outs that look alike come from different tables or passages of the source.

In general, EC50 refers to the concentration needed to bring the measured effect to its halfway point. Regarding `Cc1cn([C@H]2C[C@H](N=[N+]=[N-])[C@@H](CO)O2)c(=O)[nH]c1=O` [AZT, azidothymidine, reference compound], the EC50 with SARS-CoV-2 [1] (setting [9]) and in the data set on SARS-CoV-2 [1] (setting [10]) was above 10 µM throughout. In data set [2], this compound had a CC50 at 72 h above 200 µM.

With `Cc1cn([C@H]2C[C@H](N)[C@@H](C[Se]c3ccccc3)O2)c(=O)[nH]c1=O` [R3a], the EC50 in the data set with SARS-CoV-2 [1] (setting [11]) is 6.37 ± 0.58 µM; with SARS-CoV-2 [1] (setting [12]), 3.67 ± 1.57 µM; in the data set on SARS-CoV-2 [5], 2.25 ± 0.43 µM. The CC50 in the data set “in vitro [3]” and in the data set “in vitro [4]” was above 200 µM each time.

The term inhibition denotes the percentage by which the read-out fell short of the control. Regarding `Cc1ccc([Se]C[C@H]2O[C@@H](n3cc(C)c(=O)[nH]c3=O)C[C@@H]2N)cc1` [R3b], the EC50 in the data set on SARS-CoV-2 [1] (setting [11]) was 3.82 ± 1.42 µM; in the data set on SARS-CoV-2 [1] (setting [12]), 1.33 ± 0.35 µM; in the data set with SARS-CoV-2 [5] it was 2.97 ± 0.62 µM. The inhibition at 10 µM with SARS-CoV-2 [1] (Severe acute respiratory syndrome coronavirus 2, Calu-3, read-out: inhibition of viral replication) is 95%. Besides, the CC50 in the data set “in vitro [3]” and in the data set “in vitro [4]” was above 200 µM each time.

Regarding `COc1ccc([Se]C[C@H]2O[C@@H](n3cc(C)c(=O)[nH]c3=O)C[C@@H]2N)cc1` [R3c], the EC50 with SARS-CoV-2 [1] (setting [11]) was found to be 5.17 ± 0.81 µM; with SARS-CoV-2 [1] (setting [12]) it was 3.43 ± 1.52 µM; in the data set with SARS-CoV-2 [5], 3.31 ± 0.92 µM. Besides, the CC50 in the data set “in vitro [3]” and in “in vitro [4]” was above 200 µM in each case.

As to `Cc1cn([C@H]2C[C@H](N)[C@@H](C[Se]c3ccc(Cl)cc3)O2)c(=O)[nH]c1=O` [R3d], the concentration giving a half-maximal response (EC50) in the data set with SARS-CoV-2 [1] (setting [11]) was 8.29 ± 0.82 µM; in the data set with SARS-CoV-2 [1] (setting [12]) it was at most 2.57 µM; in the data set with SARS-CoV-2 [1] (setting [13]), 2.17 ± 0.64 µM; in the data set on SARS-CoV-2 [5], 1.23 ± 0.54 µM. Further, the CC50 in the data set “in vitro [3]” is 98.8 ± 11.7 µM; in the data set “in vitro [4]”, above 200 µM.

`Cc1cn([C@H]2C[C@H](N)[C@@H](C[Se]c3cccc4ccccc34)O2)c(=O)[nH]c1=O` [R3e]: the EC50 with SARS-CoV-2 [1] (setting [11]) is at most 2 µM; in the data set with SARS-CoV-2 [1] (setting [12]), at most 2.57 µM; with SARS-CoV-2 [1] (setting [15]) it was 1.92 ± 0.43 µM; in the data set with SARS-CoV-2 [1] (setting [13]) it was 2.31 ± 0.54 µM; in the data set with SARS-CoV-2 [5], 1.99 ± 0.42 µM. For the same compound, the inhibition at 10 µM in the data set on SARS-CoV-2 [1] (setting [14]) is above 95%. In addition, the CC50 is above 200 µM in “in vitro [3]” and 156 ± 5 µM in “in vitro [4]”. Also, the “inhibition of SARS-CoV-2 replication” value in the data set on SARS-CoV-2 [5] is “approximately 95%”.

For the compound `Cc1cn([C@H]2C[C@H](N)[C@@H](C[Te]c3ccccc3)O2)c(=O)[nH]c1=O` [R3f], the 50% effective concentration (EC50) in the data set on SARS-CoV-2 [1] (setting [11]) is at most 2 µM; in the data set on SARS-CoV-2 [1] (setting [12]), 4.86 ± 1.31 µM; in the data set with SARS-CoV-2 [5], 2.67 ± 0.63 µM. Moreover, in the data set on SARS-CoV-2 [1] (setting [14]), the inhibition at 10 µM is above 95%. The CC50 in the data set “in vitro [3]” amounted to 52.1 ± 12.7 µM; in the data set “in vitro [4]”, 44.6 ± 8.3 µM. Further, the “inhibition of SARS-CoV-2 replication” value in the data set on SARS-CoV-2 [5] is on record as “approximately 95%”.

As to `Cc1ccc([Te]C[C@H]2O[C@@H](n3cc(C)c(=O)[nH]c3=O)C[C@@H]2N)cc1` [R3n], the concentration giving a half-maximal response (EC50) in the data set on SARS-CoV-2 [1] (setting [11]) was at most 2 µM; in the data set with SARS-CoV-2 [1] (setting [12]) it was at most 2.57 µM; in the data set with SARS-CoV-2 [1] (setting [15]) it was 1.18 ± 0.61 µM; with SARS-CoV-2 [1] (setting [13]), 2.57 ± 0.62 µM; in the data set with SARS-CoV-2 [5] it was 6.1 ± 0.41 µM. Further, in the data set on SARS-CoV-2 [1] (setting [14]), the inhibition at 10 µM was above 95%. For the same compound, the CC50 in “in vitro [3]” amounted to 60.1 ± 4.4 µM; in the data set “in vitro [4]”, 68.7 ± 11.4 µM.

`COc1ccc([Te]C[C@H]2O[C@@H](n3cc(C)c(=O)[nH]c3=O)C[C@@H]2N)cc1` [R3o]: the EC50 in the data set with SARS-CoV-2 [1] (setting [11]) is 6.18 ± 2.05 µM; in the data set with SARS-CoV-2 [1] (setting [12]) it was at most 2.57 µM; with SARS-CoV-2 [1] (setting [13]), 1.99 ± 1.73 µM; in the data set with SARS-CoV-2 [5] it was 4.95 ± 0.64 µM. Moreover, the CC50 amounted to 39.9 ± 4.4 µM in the data set “in vitro [3]” and 30.7 ± 5.6 µM in “in vitro [4]”.

Turning to `Cc1cn([C@H]2C[C@H](N)[C@@H](C[Te]c3ccc(Cl)cc3)O2)c(=O)[nH]c1=O` [R3p], the EC50 in the data set with SARS-CoV-2 [1] (setting [11]) amounted to 4.33 ± 1.03 µM; in the data set on SARS-CoV-2 [1] (setting [12]), 12.7 ± 1.74 µM; with SARS-CoV-2 [5], 4.89 ± 0.52 µM. Moreover, the CC50 is 49.7 ± 7.5 µM in the data set “in vitro [3]” and 35.2 ± 7.5 µM in “in vitro [4]”. Also, in the data set on SARS-CoV-2 [5], the “inhibition of SARS-CoV-2 replication” value was “approximately 95%”.

Broadly, the melting point is the temperature of the solid-liquid transition. The compound `Cc1cn([C@H]2C[C@H](N)[C@@H](C[Te]c3cccc4ccccc34)O2)c(=O)[nH]c1=O` [R3q] registered a melting point of 134.1 to 135.6 °C. In addition, in the data set on SARS-CoV-2 [1] (setting [11]), the EC50 was at most 2 µM. Besides, the inhibition at 10 µM in the data set with SARS-CoV-2 [1] (setting [14]) is above 95%. Besides, in the data set with SARS-CoV-2 [1] (setting [15]), the half-maximal effective concentration (EC50) turned out to be 2.03 ± 0.32 µM. This compound displayed a CC50 in the data set “in vitro [3]” of 33.6 ± 6.9 µM. This compound had a CC50 in “in vitro [4]” of 34.3 ± 10.2 µM. Also, the EC50 in the data set on SARS-CoV-2 [5] is 4.21 ± 0.43 µM.

`Cc1cn([C@H]2C[C@H](N)[C@@H](CSc3ccccc3)O2)c(=O)[nH]c1=O` [R3r]: the EC50 in the data set on SARS-CoV-2 [1] (setting [9]) and with SARS-CoV-2 [1] (setting [10]) was above 10 µM in each case. Further, the CC50 at 72 h in the data set “in vitro [4]” was above 200 µM.

In the case of `COC(=O)N[C@H](C(=O)N[C@@H](Cc1ccccc1)[C@@H](O)CN(Cc1ccc(-c2ccccn2)cc1)NC(=O)[C@@H](NC(=O)OC)C(C)(C)C)C(C)(C)C` [atazanavir], the EC50 with SARS-CoV-2 [6] was 2 ± 0.12 µM.

As for `COC(=O)N[C@H](C(=O)N1CCC[C@H]1c1nc(-c2ccc(-c3ccc(-c4c[nH]c([C@@H]5CCCN5C(=O)[C@@H](NC(=O)OC)C(C)C)n4)cc3)cc2)c[nH]1)C(C)C` [daclatasvir], the EC50 with SARS-CoV-2 [7] is 1.1 ± 0.3 µM.

On to `CC(C)C(=O)OC[C@H]1O[C@@H](n2ccc(NO)nc2=O)[C@H](O)[C@@H]1O` [molnupiravir], for which, in the data set on SARS-CoV-2 [8], the EC50 is 1.97 µM.

The values above are taken from article PMC10537738, “Antiviral Effect of 5′-Arylchalcogeno-3-aminothymidine Derivatives in SARS-CoV-2 Infection” (Molecules, 2023).
